Data: paper PMC11249646, “Small-Molecule Disruptors of the Interaction between Calcium- and Integrin-Binding Protein 1 and Integrin αIIbβ3 as Novel Antiplatelet Agents” (ACS Pharmacology & Translational Science, 2024)
Read-outs that look alike come from different tables or passages of the source.

Target: T1, CIB1 and αIIb interaction (CIB1-GST : F-αIIb peptide) (Homo sapiens, UniProt Q99828)
T1 construct: made in house; host or cells: BL-21 plus RIL cells (E. coli)
T1 sequence (Q99828 1-191): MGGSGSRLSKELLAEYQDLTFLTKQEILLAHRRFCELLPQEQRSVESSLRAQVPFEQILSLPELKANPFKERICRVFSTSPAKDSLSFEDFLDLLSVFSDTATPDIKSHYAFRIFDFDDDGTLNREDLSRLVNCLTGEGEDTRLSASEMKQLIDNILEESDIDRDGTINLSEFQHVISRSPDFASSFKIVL
Experiment: FP assay, 1536-well qHTS format (primary and confirmatory screen)
Format: binding
Conditions: for Efficacy (%): negative = inhibition; for Curve Class: negative sign = inhibitory curve; for IC50: read-out: IC50

[1] = qHTS primary screen of LOPAC/NPACT libraries
[2] = qHTS primary screen hits, Table S2
[3] = qHTS primary screen hits, Table S2, several classes where COUNT > 1
[4] = qHTS FP screen hits, Table S2, one class per curve where COUNT > 1

Compound | Efficacy (%) [1] | Curve Class [1] | IC50 [1] | Efficacy (%) [2] | IC50 [2] | also measured
O=C1Cc2c([nH]c3ccc(Br)cc23)-c2ccccc2N1 [NCGC00015582-06] | -19% | -1.4 | 20 µM |  |  | 
Ic1ccccc1CNC1C2CCN(CC2)C1C(c1ccccc1)c1ccccc1.O=C(O)C(=O)O (centres unmarked) [NCGC00015587-03] | -20% | -3 | 63.1 µM |  |  | 
CCCc1c(OCCCOc2ccc(OCC(=O)O)cc2)ccc(C(C)=O)c1O [NCGC00015599-05] | -25% | -2.2 | 50.1 µM |  |  | 
CN1CCc2ccccc2Cc2[nH]c3ccccc3c2CC1 [NCGC00015614-05] | -28% | -2.4 | 31.6 µM |  |  | 
Cc1c(OCC(F)(F)F)ccnc1C[S+]([O-])c1nc2ccccc2[nH]1 (centres unmarked) [NCGC00015615-15] |  |  |  | -26% | 50.1 µM | Curve Class [2]: -2.4
O=C(O)/C(=C/c1c(C(=O)O)[nH]c2cc(Cl)cc(Cl)c12)c1ccccc1 [NCGC00015639-04] | -29% | -2.2 | 56.2 µM |  |  | 
CC(C)NCC(O)c1cc(O)cc(O)c1.CC(C)NCC(O)c1cc(O)cc(O)c1.O=S(=O)(O)O (centres unmarked) [NCGC00015655-09] |  |  |  | -51% | 56.2 µM | Curve Class [3]: -2.4
CN1CCC2(CCN3CCc4c(oc5ccccc45)C3C2)N(C)C1=O.Cl (centres unmarked) [NCGC00015699-03] | -11% | -1.4 | 17.8 µM |  |  | 
CN(N=O)c1ccc(O)c(O)c1 [NCGC00015706-04] |  |  |  | -66% | 56.2 µM | Curve Class [3]: -2.4
CCOC(=O)C1=C(C)NC(C)=C(C(=O)OC)C1c1cccc([N+](=O)[O-])c1 (centres unmarked) [NCGC00015713-10] | -23% | -2.4 | 63.1 µM |  |  | 
O=c1[nH]c2cc(C(F)(F)F)ccc2n1-c1cc(C(F)(F)F)ccc1O [NCGC00015720-07] | -30% | -2.4 | 44.7 µM |  |  | 
CN1Cc2c(N)cccc2C(c2ccccc2)C1.O=C(O)/C=C\C(=O)O (centres unmarked) [NCGC00015727-06] |  |  |  | -62% | 50.1 µM | Curve Class [2]: -2.2
O=C1C(SCCO)=C(SCCO)C(=O)c2ccccc21 [NCGC00015729-08] |  |  |  | -77% | 44.7 µM | Curve Class [2]: -2.2
O=C(Nc1ccc([N+](=O)[O-])cc1Cl)c1cc(Cl)ccc1O [NCGC00015735-08] | -12% | -2.4 | 63.1 µM |  |  | 
COC(=O)C1=C(C)NC(C)=C(C(=O)OC)C1c1ccccc1[N+](=O)[O-] [NCGC00015748-13] | -24% | -1.2 | 11.2 µM |  |  | 
CCCCCCC/C=C\CCCCCCCCC(=O)O [NCGC00015764-04] | -27% | -2.4 | 31.6 µM |  |  | 
O=c1onc2cnc3ccccc3n12 [NCGC00015770-05] | -21% | -2.4 | 56.2 µM |  |  | 
CCCC(C(=O)OCCN(CC)CC)(c1ccccc1)c1ccccc1.Cl [NCGC00015799-04] | -14% | -2.4 | 56.2 µM |  |  | 
O=C(O)C(F)(F)F.O=c1[nH]c2ccccc2n1C1CCN(CCCC(c2ccc(F)cc2)c2ccc(F)cc2)CC1 [NCGC00015802-18] |  |  |  | -216% | 89.1 µM | Curve Class [2]: -3
C=Cc1c(C)c2cc3[nH]c(cc4nc(cc5nc(cc1[nH]2)C(C)=C5CCC(=O)O)C(CCC(=O)O)=C4C)c(C)c3C=C [NCGC00015844-10] |  |  |  |  |  | Efficacy (%) (qHTS FP screen hits, Table S2): -75%; Curve Class [4]: -2.2; IC50 (qHTS FP screen hits, Table S2): 42.2 µM
O.O.O=c1c(O)c(-c2ccc(O)c(O)c2)oc2cc(O)cc(O)c12 [NCGC00015870-27] |  |  |  | -30% |  | 
Cc1nc2sccn2c(=O)c1CCN1CCC(=C(c2ccc(F)cc2)c2ccc(F)cc2)CC1 [NCGC00015877-09] | -22% | -2.2 | 56.2 µM |  |  | 
COC(=O)C1C(O)CCC2CN3CCc4c([nH]c5ccccc45)C3CC21 (centres unmarked) [NCGC00015878-08] | -68% | -2.2 |  |  |  | 
O=C(c1cc(O)c(O)c([N+](=O)[O-])c1)c1ccccc1F [NCGC00015881-04] | -35% | -2.2 | 39.8 µM |  |  | 
COc1ccccc1N1CCNCC1.Cl [NCGC00015906-04] |  |  |  | -80% | 79.4 µM | Curve Class [2]: -3
O=C(O)c1ccccc1Nc1cccc(OCc2ccc3ccccc3n2)c1 [NCGC00015965-05] |  |  |  | -42% | 50.1 µM | Curve Class [2]: -2.2

Compound | Efficacy (%) [1] | Curve Class [1] | IC50 [1] | Efficacy (%) [2] | IC50 [2] | also measured
O=C1CCC(N2C(=O)c3ccccc3C2=O)C(=O)N1 (centres unmarked) [NCGC00015989-17] |  |  |  | -28% | 50.1 µM | Curve Class [3]: -2.4
CCN(CC)C(=S)SSC(=S)N(CC)CC [NCGC00016000-10] |  |  |  | -67% | 35.8 µM | 
C/C(=C\c1ccc(C(=O)O)cc1)c1ccc2c(c1)C(C)(C)CCC2(C)C [NCGC00016015-10] | -10% | -1.4 | 39.8 µM |  |  | 
Cn1cnc2c1c(=O)[nH]c(=O)n2C [NCGC00016023-18] |  |  |  | -74% | 89.1 µM | Curve Class [3]: -3
N#C/C(=C\c1ccc(O)c(O)c1)C(=O)NCCCNC(=O)/C(C#N)=C/c1ccc(O)c(O)c1 [NCGC00016027-04] | -24% | -1.2 |  |  |  | 
N#C/C(=C\c1ccc(O)c(O)c1)C(=O)NCCc1ccccc1 [NCGC00016029-05] | -15% | -1.2 | 7.9 µM |  |  | 
COC[C@H]1OC(=O)c2coc3c2[C@@]1(C)C1=C(C3=O)C2CCC(=O)[C@@]2(C)C[C@H]1OC(C)=O (some centres unmarked) [NCGC00016094-12] |  |  |  |  |  | Efficacy (%) (qHTS FP screen hits, Table S2): -33%; Curve Class [4]: -2.2; IC50 (qHTS FP screen hits, Table S2): 29.3 µM
CCCOc1ccccc1-c1nc(=O)c2nn[nH]c2[nH]1 [NCGC00016105-05] | -22% | -1.4 | 14.1 µM |  |  | 
CC(C)N(CCC(=O)c1ccc2ccccc2c1)Cc1ccccc1.Cl [NCGC00016107-09] | -65% | -1.2 | 28.2 µM |  |  | 
COc1ccc(NS(=O)(=O)c2ccc(N)cc2)nn1 [NCGC00016324-09] |  |  |  | -139% | 39.8 µM | Curve Class [2]: -3
Oc1c(I)cc(Cl)c2cccnc12 [NCGC00016391-13] |  |  |  | -32% | 56.2 µM | Curve Class [3]: -2.4
CC(=O)O.Cc1cc2c(C(C)C)c(O)c(O)c(C=O)c2c(O)c1-c1c(C)cc2c(C(C)C)c(O)c(O)c(C=O)c2c1O [NCGC00016423-14] |  |  |  |  |  | Efficacy (%) (qHTS FP screen hits, Table S2): -64%; IC50 (qHTS FP screen hits, Table S2): 29.4 µM
O=C(CCCN1CCC(n2c(=O)[nH]c3ccccc32)CC1)c1ccc(F)cc1 [NCGC00016602-04] |  |  |  | -58% | 50.1 µM | Curve Class [2]: -2.4
COc1ccc2c(c1)C(=O)N(CCc1ccc(S(=O)(=O)NC(=O)NC3CCCCC3)cc1)C(=O)C2(C)C [NCGC00016819-06] | -31% | -2.4 | 44.7 µM |  |  | 
Nc1cc(-c2ccncc2)c[nH]c1=O [NCGC00016896-06] |  |  |  | -48% | 50.1 µM | Curve Class [3]: -2.2
CCC(C)(C)C(=O)O[C@H]1C[C@@H](C)C=C2C=C[C@H](C)[C@H](CC[C@@H]3C[C@@H](O)CC(=O)O3)[C@H]21 [NCGC00017324-07] |  |  |  | -17% |  | Curve Class [3]: -2.4
CCCN1C[C@H](CSC)C[C@@H]2c3cccc4[nH]cc(c34)C[C@H]21 [NCGC00017366-05] | -29% | -2.2 | 50.1 µM |  |  | 
Fc1ccc(C(c2ccc(F)cc2)N2CCN(C/C=C/c3ccccc3)CC2)cc1 [NCGC00018102-06] |  |  |  | -167% | 19.2 µM | Curve Class [2]: -2.1
Cl.Cl.Nc1ccc(/N=N/c2ccccc2)c(N)n1 [NCGC00018130-09] |  |  |  | -22% | 79.4 µM | Curve Class [2]: -2.4
COc1ccc(/C=C/C(=O)Nc2ccccc2C(=O)O)cc1OC [NCGC00018185-09] |  |  |  | -29% | 39.8 µM | Curve Class [3]: -2.2
CC1=NN(c2ccccc2)C(=O)C1 [NCGC00018218-10] |  |  |  | -46% | 50.1 µM | Curve Class [3]: -2.2
Cc1nnc(SCC2=C(C(=O)O)N3C(=O)[C@@H](NC(=O)Cn4cnnn4)[C@H]3SC2)s1 [NCGC00022653-06] | -21% |  |  |  |  | 
CO[C@@]1(NC(=O)CSCC#N)C(=O)N2C(C(=O)[O-])=C(CSc3nnnn3C)CS[C@@H]21.[Na+] [NCGC00023016-07] |  |  |  | -29% | 50.1 µM | Curve Class [3]: -2.4
Cc1ccc(Cl)c(Nc2ccccc2C(=O)O)c1Cl [NCGC00023217-06] |  |  |  | -57% | 44.7 µM | Curve Class [2]: -2.2
CC[C@@H](CO)NC(=O)[C@@H]1C=C2c3cccc4c3c(cn4C)C[C@H]2N(C)C1 [NCGC00024027-09] |  |  |  |  |  | Efficacy (%) (qHTS FP screen hits, Table S2): -89%; Curve Class [4]: -2.2; IC50 (qHTS FP screen hits, Table S2): 44.7 µM
COc1cccc2c1C(=O)c1c(O)c3c(c(O)c1C2=O)C[C@@](O)(C(C)=O)C[C@@H]3O[C@H]1C[C@H](N)[C@H](O)[C@H](C)O1 [NCGC00024246-15] |  |  |  | -61% | 15.2 µM | 
